As usually defined, the pEC50 is −log10 of the EC50, conventionally taken in molar units. For orientation: pIC50 means the IC50 on a negative log10 scale, so that one unit is a factor of ten.

pEC50, pIC50: −log10 of the molar value. The source made the active and inactive calls. The rule behind the calls is not given here.

The values below come from ChEMBL document CHEMBL5370626, “Targeting the Subpocket Enables the Discovery of Thiadiazole-Pyridazine Derivatives as Glutaminase C Inhibitors” (ACS Med Chem Lett, 2023).

Experiment [1] in a line: (§1) Inhibition of human recombinant GAC K320A mutant (73 to 598 residues ) expressed in Escherichia coli BL21 (DE3) cells incubated for 10 mins by fluorometric assay.
Experiment [2] concerns A549. The experiment in a line: Antiproliferative activity against human A549 cells assessed as reduction in cell viability incubated for 72 hrs by Celltiter-glo assay. The class given is functional, cell-based. The note with it: A549, 72 h. In general terms: Cellular ATP, detected with luciferase, serves as a proxy for viable cell number.
Experiment [3] deals with A549. The experiment in a line: Antitumor activity against human A549 cells xenografted in Balb/c nude mouse assessed as tumor growth inhibition at 100 mg/kg, po administered once daily 24 days relative to control. In kind it is functional. To be noted: A549, 576 h, time 24 day, read-out: TGI. On the technique in general: In xenograft studies the graft and the host belong to different species.

Experiment [4] deals with A549. The experiment in a line: Inhibition of colony formation in human A549 cells assessed as reduction of colony number measured after 4 days by crystal violet staining-based colony formation assay. The class given is functional, cell-based. The note with it: dose 10-1000 nM, time 4.0 day.
Experiment [5] has as its target T1, Glutaminase kidney isoform, mitochondrial (Homo sapiens) (UniProt O94925).
T1 sequence (whole entry): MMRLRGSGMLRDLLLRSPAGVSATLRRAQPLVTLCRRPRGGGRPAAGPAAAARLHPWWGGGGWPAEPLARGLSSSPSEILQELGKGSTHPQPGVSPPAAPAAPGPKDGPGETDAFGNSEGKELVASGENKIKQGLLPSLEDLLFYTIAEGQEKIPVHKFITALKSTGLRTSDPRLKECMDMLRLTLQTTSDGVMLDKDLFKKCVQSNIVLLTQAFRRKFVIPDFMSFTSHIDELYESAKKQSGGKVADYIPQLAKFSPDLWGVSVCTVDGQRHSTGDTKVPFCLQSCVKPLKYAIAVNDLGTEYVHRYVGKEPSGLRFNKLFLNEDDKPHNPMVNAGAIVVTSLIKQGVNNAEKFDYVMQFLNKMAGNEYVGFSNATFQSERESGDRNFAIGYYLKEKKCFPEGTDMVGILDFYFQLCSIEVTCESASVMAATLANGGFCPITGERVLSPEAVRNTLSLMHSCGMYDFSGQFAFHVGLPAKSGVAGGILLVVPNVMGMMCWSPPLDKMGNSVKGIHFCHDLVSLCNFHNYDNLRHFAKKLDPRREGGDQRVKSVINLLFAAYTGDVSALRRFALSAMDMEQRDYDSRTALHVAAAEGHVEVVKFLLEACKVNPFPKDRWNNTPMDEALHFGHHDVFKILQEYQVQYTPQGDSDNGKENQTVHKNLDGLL
The experiment is described as follows: Inhibition of human GAC in A549 cells assessed as reduction in glutamate level at 100 to 1000 nM incubated for 16 hrs by colorimetric assay. The class given is cell-based. The note with it: dose 100-1000 nM.

Experiment [6] concerns the target T1, Glutaminase kidney isoform, mitochondrial (Homo sapiens). The experiment is described as follows: Inhibition of human GAC in A549 cells assessed as induction of ROS level incubated for 16 hrs by DCFH-DA staining based flow cytometric analysis. The note with it: dose 100-1000 nM. The class given is cell-based. In general terms: A flow cytometer gives signals particle by particle.

A further experiment is filed under the species Homo sapiens. The experiment is described as §1.
For experiment [7], the target named is T1, Glutaminase kidney isoform, mitochondrial (Homo sapiens). The experiment in a line: Inhibition of GAC (unknown origin).

`CCOC(=O)c1cccc(CC(=O)Nc2nnc(N[C@@H]3CCN(c4cccnn4)C3)s2)c1`: in experiment [1], the pEC50 was 8.57. In addition, the pIC50 with A549 [2] was 6.99.
For `O=C(Cc1cccc(C(=O)OCC2CC2)c1)Nc1nnc(N[C@@H]2CCN(c3cccnn3)C2)s1`, in that order: 7.89 and 7.29.
Regarding `CCOP(=O)(OCC)c1cccc(CC(=O)Nc2nnc(N[C@@H]3CCN(c4cccnn4)C3)s2)c1`, in experiment [1], the pEC50 was 8.81. Further, the pIC50 in the experiment with A549 [2] was 6.05.
`O=C(Cc1cccc(OC(F)(F)F)c1)Nc1ccc(CCCCc2nnc(NC(=O)Cc3ccccn3)s2)nn1` [TELAGLENASTAT]: the inhibition in vivo at 100 mg/kg in the experiment with A549 [3] amounted to 34.5%. Besides, in experiment [1], the pEC50 was 7.78. In addition, the negative logarithm of the IC50 (pIC50) with A549 [2] is 7.73.
Consider `COc1cccc(CC(=O)Nc2nnc(N[C@@H]3CCN(c4cccnn4)C3)s2)c1`, for which the pEC50 in experiment [1] was 8.48. In addition, the pIC50 in the experiment on A549 [2] was 7.22.
Take `O=C(Cc1cccc(OC(F)(F)F)c1)Nc1nnc(N[C@@H]2CCN(c3cccnn3)C2)s1`: the pEC50 in experiment [1] is 7.03. The pIC50 with A549 [2] was 8.90.
Taken in the same sequence, the figures for `Cc1oc(=O)oc1COC(=O)c1cccc(CC(=O)Nc2nnc(N[C@@H]3CCN(c4cccnn4)C3)s2)c1` were 8.42 and 5.26.
As to `O=C(Nc1nnc(N[C@@H]2CCN(c3cccnn3)C2)s1)C1(c2ccccc2)CC1`, the pEC50 in experiment [1] is less than 6.00. Besides, the pIC50 with A549 [2] was 6.02.
Taken in the same sequence, the figures for `O=C(Cc1cccc(C(=O)NC2CC(F)(F)C2)c1)Nc1nnc(N[C@@H]2CCN(c3cccnn3)C2)s1` were 8.10 and 5.97.
Regarding `O=C(Cc1ccccc1)Nc1nnc(N[C@@H]2CCN(c3cccnn3)C2)s1`, in experiment [1], the pEC50 is 8.47. The pIC50 with A549 [2] was 6.99.
Taken in the same sequence, the figures for `N#Cc1cccc(CC(=O)Nc2nnc(N[C@@H]3CCN(c4cccnn4)C3)s2)c1` were 8.68 and 6.13.
Taken in the same sequence, the figures for `CO[C@H](C(=O)Nc1nnc(N[C@@H]2CCN(c3cccnn3)C2)s1)c1ccccc1` were 8.49 and 7.90.
Taken in the same sequence, the figures for `O=C(Cc1cccc(Cc2ccccc2)c1)Nc1nnc(N[C@@H]2CCN(c3cccnn3)C2)s1` were 8.03 and 7.88.
For the molecule `NC(=O)c1cccc(CC(=O)Nc2nnc(N[C@@H]3CCN(c4cccnn4)C3)s2)c1`, the pEC50 in experiment [1] was 8.67. In addition, the pIC50 with A549 [2] is 6.43.
For `O=C(Cc1cccnc1)Nc1nnc(N[C@@H]2CCN(c3cccnn3)C2)s1`, in that order: 8.05 and 6.30.
As for `O=C(Cc1cccc(B(O)O)c1)Nc1nnc(N[C@@H]2CCN(c3cccnn3)C2)s1`, the negative-log EC50 (pEC50) in experiment [1] was 8.25. In the experiment on A549 [2], the pIC50 is 5.93.
Taken in the same sequence, the figures for `O=C(Cc1cccs1)Nc1nnc(N[C@@H]2CCN(c3cccnn3)C2)s1` were 8.29 and 6.65.
As for `CN(C)C(=O)c1cccc(CC(=O)Nc2nnc(N[C@@H]3CCN(c4cccnn4)C3)s2)c1`, the pEC50 in experiment [1] was 8.27. Further, the pIC50 with A549 [2] was 5.74.
`O=C(Cc1cccc(C(=O)OCC2CCC2)c1)Nc1nnc(N[C@@H]2CCN(c3cccnn3)C2)s1`: the pEC50 in experiment [1] is 8.00. Also, the pIC50 with A549 [2] was 7.86.
`O=C(Cc1cccc(P(=O)(O)O)c1)Nc1nnc(N[C@@H]2CCN(c3cccnn3)C2)s1`: the pEC50 in experiment [1] was 8.01. In addition, the pIC50 with A549 [2] was less than 5.00.
Taken in the same sequence, the figures for `O=C(Cc1ccc(C(=O)O)cc1)Nc1nnc(N[C@@H]2CCN(c3cccnn3)C2)s1` were 7.85 and 5.33.
`CN(C)C(=O)COC(=O)c1cccc(CC(=O)Nc2nnc(N[C@@H]3CCN(c4cccnn4)C3)s2)c1`: the pEC50 in experiment [1] is 8.50. The pIC50 in the experiment on A549 [2] is less than 5.00.
Taken in the same sequence, the figures for `O=C(Cc1ccc2ccccc2c1)Nc1nnc(N[C@@H]2CCN(c3cccnn3)C2)s1` were 7.58 and 6.43.
As for `CC(C)OC(=O)c1cccc(CC(=O)Nc2nnc(N[C@@H]3CCN(c4cccnn4)C3)s2)c1`, the inhibition entry (in the experiment on A549 [4]; in experiment [6]) was “Dose-Dependent Effect” each time. The pEC50 in experiment [1] was 8.40. The inhibition result in experiment [5] is “Active”. Further, the pIC50 in the experiment with A549 [2] is 8.03.
With `O=C(Cc1cccc(O)c1)Nc1nnc(N[C@@H]2CCN(c3cccnn3)C2)s1`, the pEC50 in experiment [1] was 8.77. The negative logarithm of the IC50 (pIC50) in the experiment with A549 [2] is 5.96.
On to `CS(=O)(=O)NC(=O)c1cccc(CC(=O)Nc2nnc(N[C@@H]3CCN(c4cccnn4)C3)s2)c1`, for which, in experiment [1], the pEC50 is 8.58. In addition, the pIC50 in the experiment on A549 [2] was less than 5.00.
For the molecule `O=C(Cc1cccc(C(=O)O)c1)Nc1nnc(N[C@@H]2CCN(c3cccnn3)C2)s1`, the pEC50 in experiment [1] was 8.72. Further, the INH was found to be 157 nM in the experiment filed under Homo sapiens and 1.48 nM in experiment [7]. In addition, the pIC50 in the experiment with A549 [2] was 6.14.
On to `COC(=O)c1cccc(CC(=O)Nc2nnc(N[C@@H]3CCN(c4cccnn4)C3)s2)c1`, for which the pEC50 in experiment [1] was 9.10. The pIC50 with A549 [2] was 7.89.
For `CNC(=O)c1cccc(CC(=O)Nc2nnc(N[C@@H]3CCN(c4cccnn4)C3)s2)c1`, in that order: 8.34 and 6.97.
With `O=C(Cc1cccc(C(=O)NCCF)c1)Nc1nnc(N[C@@H]2CCN(c3cccnn3)C2)s1`, in experiment [1], the pEC50 was 8.50. Also, in the experiment on A549 [2], the pIC50 was 5.93.
For `O=C(Cc1cccc(F)c1)Nc1nnc(N[C@@H]2CCN(c3cccnn3)C2)s1`, in that order: 8.62 and 6.52.
For the molecule `Cc1ccccc1Oc1cccc(CC(=O)Nc2nnc(N[C@@H]3CCN(c4cccnn4)C3)s2)c1`, in experiment [1], the pEC50 is 7.43. In addition, in the experiment with A549 [2], the pIC50 was 7.43.
With `CCOC(=O)OCOC(=O)c1cccc(CC(=O)Nc2nnc(N[C@@H]3CCN(c4cccnn4)C3)s2)c1`, the pEC50 in experiment [1] was 8.43. For the same molecule, the pIC50 in the experiment with A549 [2] was 6.00.
For `O=C(Cc1ccco1)Nc1nnc(N[C@@H]2CCN(c3cccnn3)C2)s1`, in that order: 8.13 and 6.51.
For `O=C(Cc1cccc(-c2nnn[nH]2)c1)Nc1nnc(N[C@@H]2CCN(c3cccnn3)C2)s1`, in that order: 8.44 and less than 5.00.
For the molecule `COC(=O)c1ccc(CC(=O)Nc2nnc(N[C@@H]3CCN(c4cccnn4)C3)s2)cc1`, the pEC50 in experiment [1] is 8.37. The pIC50 in the experiment with A549 [2] was 7.32.
Taken in the same sequence, the figures for `CC1(C)OB(c2cccc(CC(=O)Nc3nnc(N[C@@H]4CCN(c5cccnn5)C4)s3)c2)OC1(C)C` were 8.09 and 5.90.
For `CC(=O)OCOC(=O)c1cccc(CC(=O)Nc2nnc(N[C@@H]3CCN(c4cccnn4)C3)s2)c1`, in that order: 8.45 and 5.96.
Taken in the same sequence, the figures for `O=C(Cc1ccc(CO)cc1)Nc1nnc(N[C@@H]2CCN(c3cccnn3)C2)s1` were 7.90 and 5.77.
On to `O=C(Cc1cccc(C(=O)NC2CCC(F)(F)CC2)c1)Nc1nnc(N[C@@H]2CCN(c3cccnn3)C2)s1`, for which, in experiment [1], the negative-log EC50 (pEC50) is 8.37. The pIC50 in the experiment on A549 [2] is 5.97.
For `O=C(CCc1ccccc1)Nc1nnc(N[C@@H]2CCN(c3cccnn3)C2)s1`, in that order: 7.17 and 6.13.
For `O=C(Cc1cccc(C(F)(F)F)c1)Nc1nnc(N[C@@H]2CCN(c3cccnn3)C2)s1`, in that order: 8.19 and 7.22.
